Experimental data taken from paper PMC11525196 (Nature, 2024).
Substitutions are numbered along the chain they refer to.

What was measured:
Assay in all cases: SPR steady-state affinity
Assay type in all cases: binding
[1] = target: T1, LYCHOS (GPR155) (Homo sapiens, UniProt Q7Z3F1, N145A)
T1 sequence (Q7Z3F1 1-870 N145A): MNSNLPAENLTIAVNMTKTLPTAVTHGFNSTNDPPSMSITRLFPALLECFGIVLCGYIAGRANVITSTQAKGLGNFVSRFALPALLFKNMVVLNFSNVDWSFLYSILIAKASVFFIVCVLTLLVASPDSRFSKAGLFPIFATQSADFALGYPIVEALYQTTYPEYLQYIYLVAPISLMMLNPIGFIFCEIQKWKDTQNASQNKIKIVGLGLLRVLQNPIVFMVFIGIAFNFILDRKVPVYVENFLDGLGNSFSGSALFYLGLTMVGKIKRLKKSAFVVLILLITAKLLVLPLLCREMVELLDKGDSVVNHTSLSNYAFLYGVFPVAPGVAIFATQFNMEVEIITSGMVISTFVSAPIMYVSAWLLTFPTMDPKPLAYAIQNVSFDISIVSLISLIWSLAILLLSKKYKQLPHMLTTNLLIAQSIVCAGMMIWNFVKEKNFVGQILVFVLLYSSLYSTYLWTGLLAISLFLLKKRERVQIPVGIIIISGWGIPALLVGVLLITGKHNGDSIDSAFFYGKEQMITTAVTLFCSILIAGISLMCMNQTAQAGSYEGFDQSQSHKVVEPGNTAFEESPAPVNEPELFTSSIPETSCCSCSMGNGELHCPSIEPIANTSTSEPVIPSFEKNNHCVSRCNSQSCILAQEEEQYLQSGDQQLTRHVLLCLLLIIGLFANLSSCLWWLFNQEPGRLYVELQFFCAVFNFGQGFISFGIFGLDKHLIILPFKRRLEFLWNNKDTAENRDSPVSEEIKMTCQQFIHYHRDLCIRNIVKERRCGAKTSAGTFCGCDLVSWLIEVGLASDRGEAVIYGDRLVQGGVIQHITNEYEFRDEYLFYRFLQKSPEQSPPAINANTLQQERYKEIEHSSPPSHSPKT

[2] = target: T2, LYCHOS (GPR155) (Homo sapiens, UniProt Q7Z3F1, L177W)
T2 sequence (Q7Z3F1 1-870 L177W): T1 sequence (Q7Z3F1 1-870 N145A) with A145N, L177W

[3] = target: T3, LYCHOS (GPR155) (Homo sapiens, UniProt Q7Z3F1)
T3 sequence (Q7Z3F1 1-870): T1 sequence (Q7Z3F1 1-870 N145A) with A145N

[4] = target: T4, LYCHOS (GPR155) (Homo sapiens, UniProt Q7Z3F1, A148W)
T4 sequence (Q7Z3F1 1-870 A148W): T1 sequence (Q7Z3F1 1-870 N145A) with A145N, A148W

`O=C(O)Cc1c[nH]c2ccccc12` [IAA, Indole-3-acetic acid] showed a Kd [1] of 5.49 mM, a Kd [2] of 3.93 mM and a Kd [3] of 1.62 mM. The Kd [4] was 3.38 mM.
